The subject of data set [1] is SARS-CoV-2 strain BavPat1. The data set is described as follows: SARS-CoV-2 assay in Vero E6 cells (CellTiter-Blue). Particulars: 10 μM. For orientation: Resazurin is reduced to fluorescent resorufin, in cell work by metabolically active cells.
Data set [2] can be described thus: Cytotoxicity MTS assay in HepG2 cells. The data set is classed as cell-based. The settings on record: human. As for the experimental part:
(§1) Assays were performed in human peripheral blood mononuclear (PBM) and human liver (HepG2) cells via MTS assay using the CellTiter 96® Non-Radioactive Cell Proliferation (Promega) kit as previously described^3. Cytotoxicity was expressed as the concentration of test compounds that inhibited cell proliferation by 50% (IC50) and calculated using the Chou and Talalay method.
For orientation: Tetrazolium dyes change colour on reduction, which living cells bring about.

Data set [3] relates to HBV. Briefly: HBV assay in HepAD38 cells, real-time PCR for HBV DNA in supernatant. Particulars: Hepatitis B virus, 168 h, 7 days. The data set is classed as cell-based. On the procedure:
In HepAD38 cells were seeded at 50,000 cells/well in collagen-coated 96-well plates. Test compounds or 2′,3′-didéoxy-3′-thiacytidin (3TC) (control) were added to HepAD38 cells to a final concentration of 10 μM.
Real-Time PCR for HBV DNA. The experiment lasted 7 days. On day 7, total DNA was purified from the supernatant using a commercially available kit (DNeasy 96 Blood & Tissue kit, Qiagen). The HBV DNA was amplified in a real-time PCR assay using a LightCycler 480 (Roche) as described elsewhere. All samples were tested in duplicate in two to three independent experiments. Analysis: The concentration of compound that inhibited HBV DNA replication by 50% (EC50) was determined by linear regression.
A general note: In qPCR the cycle at which signal appears reflects the starting amount.

Data set [4] relates to HBV. The data set is described as follows: HBV assay in Huh7 cells transfected with pCI_HBVpg1820, intracapsid viral DNA by real-time PCR. The data set is classed as cell-based, hepatitis B virus (HBV). The settings on record: for inhibition at 10 µM: Hepatitis B virus, Huh-7, 96 h. On the procedure:
In Huh7 cells: antiviral activity against HBV in cell culture was measured as previously described. Briefly, Huh7 cells were transfected with plasmid pCI_HBVpg1820 containing 1.1 unit of HBV genome under the control of a human cytomegalovirus (CMV) promoter. The drugs were stored at 1000× in DMSO at −20 °C. For each experiment, the drugs were diluted in DMEM cell culture medium (Thermo Fisher Scientific, Artenay, France) to a final concentration of 10 μM. All drugs were tested in triplicate in two independent experiments. After 4 days of culture, intracapsid viral DNA was quantified by duplex real-time PCR, using primers described elsewhere, on a LightCycler 480 II apparatus (Roche Diagnostics France, Meylan, France) using TaqMan Universal PCR Mastermix II without UNG (Thermo Fisher Scientific, Artenay, France). Cells were quantified using primers by real-time PCR, using primers HPRT1_F (5′-[…]) and HPRT1_R (5′-[…]), on a LightCycler 480 II apparatus (Roche) using a LightCycler® 480 SYBR Green I Master (Roche Diagnostics France, Meylan, France). Cycling reactions were performed with the following parameters: 5 min at 95 °C, followed by 45 cycles of 10 s at 95 °C, 15 s at 60 °C, 10 s at 72 °C. The inhibition of HBV replication (%) and cell culture viability (%) were quantified using the following formulas. Inhibition of HBV replication (%)=1− HBV DNA copy numberDrug/HBV DNA copy numberCell culture medium Cell viability (%)= HPRT1 DNA copy numberDrug/HPRT1 DNA copy numberCell culture medium

A further data set has as its system HIV-1 LAI. Briefly: HIV assay in human PBM cells infected with HIV-1 LAI, RT quantification. In kind it is cell-based. Particulars: for inhibition at 10 µM: Human immunodeficiency virus 1, PBMC, PBM cells, HIV-1 LAI. On the procedure:
The assay was performed as described by Schinazi et al. with minor modifications. […] The supernatants were harvested, and the HIV-1 RT was quantified.

Data set [5] is described as follows: Cell culture viability in the Huh7 HBV assay (HPRT1 DNA copy number). Particulars: human.
The nature of another data set: in vitro. The data set is classed as cell-based. Particulars: human; PBM cells; read-out: MTS Cytotoxicity (IC50, μM) PBM. As for the experimental part: as §1
Where [6] appears, read: 10 μM, Huh7 cells, 4 days, read-out: HBV % Inhibition Huh7.

These results are taken from article PMC7967160, “Synthesis and Antiviral Evaluation of (1,4-Disubstituted-1,2,3-Triazol)-(E)-2-Methyl-but-2-Enyl Nucleoside Phosphonate Prodrugs” (Molecules, 2021).

As usually defined, the IC50 is the concentration needed to halve the response being measured. As a reminder, the inhibition is the relative decrease from the control value, in per cent. Usually viability stands for a read-out of living cells in per cent, often relative to untreated cells. A high value points to less harm to the cells. Take `C/C(=C\CP(=O)(OCOC(=O)OC(C)C)OCOC(=O)OC(C)C)Cn1cc(CO)nn1` [Compound 11h, [[(E)-4-[4-(Hydroxymethyl)triazol-1-yl]-3-methyl-but-2-enyl]-(isopropoxycarbonyloxymethoxy)phosphoryl]oxymethyl isopropyl carbonate]: in data set [1], the “SARS-CoV-2 % Inhibition Vero E6” value is 12%. Further, the values for the IC50 (in data set [2]; in the data set “in vitro”) were over 100 µM and 76.4 µM, respectively. The figures for the inhibition at 10 µM in the data set on HBV [3], in the data set on HBV [4] (setting [6]) and with HIV-1 LAI were 15.1%, 28% and under 1%, respectively. Further, in data set [5], the viability at 4 days, 10 µM was determined as 100%.
On to `CCNC(=O)c1cn(C/C(C)=C/CP(=O)(OCOC(=O)OC(C)C)OCOC(=O)OC(C)C)nn1` [Compound 11q, [[(E)-4-[4-(Ethylcarbamoyl)triazol-1-yl]-3-methyl-but-2-enyl]-(isopropoxycarbonyloxymethoxy)phosphoryl]oxymethyl isopropyl carbonate], for which, in data set [1], the “SARS-CoV-2 % Inhibition Vero E6” value is under 1%. In addition, the concentration for half-maximal inhibition (IC50) in data set [2] was over 100 µM; in “in vitro” it was 80.6 µM. Further, the results for the inhibition at 10 µM in the data set on HBV [3], with HBV [4] (setting [6]) and with HIV-1 LAI were under 1%, under 1% and 31.2%, respectively. This compound also registered a viability at 4 days, 10 µM in data set [5] of 90%.
Turning to `CCC(CC)COC(=O)[C@H](C)N[P@](=O)(OC[C@H]1O[C@@](C#N)(c2ccc3c(N)ncnn23)[C@H](O)[C@@H]1O)Oc1ccccc1` [Remdesivir, reference compound], in data set [1], the “SARS-CoV-2 % Inhibition Vero E6” value came to 100%.
With `CCCCc1ccc(-c2cn(C/C(C)=C/CP(=O)(OCOC(=O)OC(C)C)OCOC(=O)OC(C)C)nn2)cc1` [Compound 11b, [[(E)-4-[4-(4-Butylphenyl)triazol-1-yl]-3-methyl-but-2-enyl]-(isopropoxycarbonyloxymethoxy)phosphoryl]oxymethyl isopropyl carbonate], in data set [1], the “SARS-CoV-2 % Inhibition Vero E6” value is under 1%. Moreover, the IC50 is 16.2 µM in data set [2] and 19.4 µM in the data set “in vitro”. Besides, the inhibition at 10 µM was 14.4% in the data set with HBV [3], 25% with HBV [4] (setting [6]) and under 1% in the data set with HIV-1 LAI. Besides, the viability at 4 days, 10 µM in data set [5] worked out at 88%.
Consider `C/C(=C\CP(=O)(OCOC(=O)OC(C)C)OCOC(=O)OC(C)C)Cn1cc(C2CC2)nn1` [Compound 11f, [[(E)-4-(4-Cyclopropyltriazol-1-yl)-3-methyl-but-2-enyl]-(isopropoxycarbonyloxymethoxy)phosphoryl]oxymethyl isopropyl carbonate], for which, in data set [1], the “SARS-CoV-2 % Inhibition Vero E6” value is under 1%. For the same compound, the IC50 in data set [2] was over 100 µM; in “in vitro”, 25.5 µM. In addition, the figures for the inhibition at 10 µM in the data set on HBV [3], with HBV [4] (setting [6]) and in the data set with HIV-1 LAI were 36.3%, under 1% and 30.7%, respectively. Besides, in data set [5], the viability at 4 days, 10 µM came out at 100%.
Consider `C/C(=C\CP(=O)(OCOC(=O)OC(C)C)OCOC(=O)OC(C)C)Cn1cc(C(N)=O)nn1` [Compound 11j, [[(E)-4-(4-Carbamoyltriazol-1-yl)-3-methyl-but-2-enyl]-(isopropoxycarbonyloxymethoxy)phosphoryl]oxymethyl isopropyl carbonate], for which the “SARS-CoV-2 % Inhibition Vero E6” value in data set [1] is under 1%. The figures for the IC50 (in data set [2]; in “in vitro”) were over 100 µM and 76.8 µM, respectively. In addition, the inhibition at 10 µM in the data set with HBV [3] is 31.3%; in the data set on HBV [4] (read-out: HBV % Inhibition Huh7, 10 μM, Huh7 cells, 4 days) it was over 40%; in the data set with HIV-1 LAI, under 1%. Also, the “HBV % Inhibition Huh7” value in the data set on HBV [4] (10 μM, Huh7 cells, 4 days) was 40%. For the same compound, the viability at 4 days, 10 µM in data set [5] is 100%.
Turning to `C/C(=C\CP(=O)(OCOC(=O)OC(C)C)OCOC(=O)OC(C)C)Cn1cc(C(C)(C)C)nn1` [Compound 11g, [[(E)-4-(4-tert-Butyltriazol-1-yl)-3-methyl-but-2-enyl]-(isopropoxycarbonyloxymethoxy)phosphoryl]oxymethyl isopropyl carbonate], in data set [1], the “SARS-CoV-2 % Inhibition Vero E6” value is listed as under 1%. Further, the IC50 is over 100 µM in data set [2] and 28.3 µM in the data set “in vitro”. Moreover, the inhibition at 10 µM with HBV [3] is 17.3%; with HBV [4] (setting [6]), 10%; with HIV-1 LAI, 12.3%. The same compound yielded a viability at 4 days, 10 µM in data set [5] of 79%.
For the compound `CCCCCCCCCCCCCCCCOCCCOP(=O)(C/C=C(\C)Cn1cc(-c2ccc(CCCCCCC)cc2)nn1)OCOC(=O)OC(C)C` (stereo not shown) [Compound 15e, [3-Hexadecyloxypropoxy-[(E)-3-methyl-4-[4-(heptylphenyl)triazol-1-yl]but-2-enyl]phosphoryl]oxymethyl isopropyl carbonate], the “SARS-CoV-2 % Inhibition Vero E6” value in data set [1] was under 1%. In addition, in the data set on HBV [4] (setting [6]), the inhibition at 10 µM was determined as 8%. The compound also showed a viability at 4 days, 10 µM in data set [5] of 100%.
As to `CCCCCCCCCCCCCCCCOCCCOP(=O)(C/C=C(\C)Cn1cc(-c2ccc(CCCCC)cc2)nn1)OCOC(=O)OC(C)C` (stereo not shown) [Compound 15c, [3-Hexadecyloxypropoxy-[(E)-3-methyl-4-[4-(4-pentylphenyl)triazol-1-yl]but-2-enyl]phosphoryl]oxymethyl isopropyl carbonate], the “SARS-CoV-2 % Inhibition Vero E6” value in data set [1] is given as under 1%. The concentration for half-maximal inhibition (IC50) in data set [2] is over 100 µM; in “in vitro”, 50.5 µM. For the same compound, the figures for the inhibition at 10 µM in the data set with HBV [3], with HBV [4] (setting [6]) and in the data set on HIV-1 LAI were 28.8%, 14% and 28.2%, respectively. The same compound gave a viability at 4 days, 10 µM in data set [5] of 47%.
As to `C[C@@H]1C[C@@H]([C@H](O)CC2CC(=O)NC(=O)C2)C(=O)[C@@H](C)C1` [cycloheximide, reference compound], the results for the IC50 (in data set [2]; in the data set “in vitro”) were 1.5 µM and 1 µM, respectively.
As to `CCCCCCCCCCCCCCCCOCCCOP(=O)(C/C=C(\C)Cn1cc(-c2ccc([N+](=O)[O-])cc2)nn1)OCOC(=O)OC(C)C` (stereo not shown) [Compound 15l, [3-Hexadecyloxypropoxy-[(E)-3-methyl-4-[4-(nitrophenyl)triazol-1-yl]but-2-enyl]phosphoryl]oxymethyl isopropyl carbonate], the “SARS-CoV-2 % Inhibition Vero E6” value in data set [1] is listed as under 1%. In addition, the inhibition at 10 µM in the data set with HBV [4] (setting [6]) was determined as 12%. This compound yielded a viability at 4 days, 10 µM in data set [5] of 100%.
Consider `CCCCCCc1ccc(-c2cn(C/C(C)=C/CP(=O)(OCOC(=O)OC(C)C)OCOC(=O)OC(C)C)nn2)cc1` [Compound 11d, [[(E)-4-[4-(4-Hexylphenyl)triazol-1-yl]-3-methyl-but-2-enyl]-(isopropoxycarbonyloxymethoxy)phosphoryl]oxymethyl isopropyl carbonate], for which, in data set [1], the “SARS-CoV-2 % Inhibition Vero E6” value is under 1%. For the same compound, the half-inhibitory concentration (IC50) in data set [2] is 59.6 µM; in “in vitro”, 23.7 µM. Moreover, the inhibition at 10 µM in the data set with HBV [3] worked out at 38.8%; in the data set with HBV [4] (setting [6]) it was 39%; in the data set on HIV-1 LAI it was 41.8%. Also, the viability at 4 days, 10 µM in data set [5] turned out to be 100%.
As to `CCCCCCCCCCCCCCCCOCCCOP(=O)(C/C=C(\C)Cn1cc(-c2ccc(CCC)cc2)nn1)OCOC(=O)OC(C)C` (stereo not shown) [Compound 15a, [3-Hexadecyloxypropoxy-[(E)-3-methyl-4-[4-(4-propylphenyl]triazol-1-yl]but-2-enyl]phosphoryl]oxymethyl isopropyl carbonate], the “SARS-CoV-2 % Inhibition Vero E6” value in data set [1] is listed as under 1%. The inhibition at 10 µM in the data set on HBV [4] (setting [6]) is under 1%. Further, the viability at 4 days, 10 µM in data set [5] is 95%.
As for `C/C(=C\CP(=O)(OCOC(=O)OC(C)C)OCOC(=O)OC(C)C)Cn1cc(C(=O)O)nn1` [Compound 11m, 1-[(E)-4-[Bis(isopropoxycarbonyloxymethoxy)phosphoryl]-2-methyl-but-2-enyl]triazole-4-carboxylic acid], in data set [1], the “SARS-CoV-2 % Inhibition Vero E6” value is given as under 1%. Besides, in data set [2], the IC50 was over 100 µM. Further, the inhibition at 10 µM is 41.3% in the data set with HBV [3], 12% in the data set on HBV [4] (setting [6]) and 12.9% with HIV-1 LAI. Moreover, the viability at 4 days, 10 µM in data set [5] is 57%.
What is called EC50 is the concentration needed to bring the measured effect to its halfway point. Consider `Cc1cn([C@H]2C[C@H](N=[N+]=[N-])[C@@H](CO)O2)c(=O)[nH]c1=O` [AZT, reference compound], for which the EC50 in the data set on HIV-1 LAI (positive control, data not shown, read-out: EC50 anti-HIV) stood at 0.008 µM.
